Measured values reported in ChEMBL document CHEMBL5625232, “Development of selective class I protein arginine methyltransferase inhibitors through fragment-based drug design approach” (Eur J Med Chem, 2023).
Values after ≈ are worked out from the molar mass of the structure shown. One block for each compound: values may come before it. Active and inactive are the calls of the source. No cut-off for these calls is given here.

Experiments:
[1] = Lipophilicity, log D of compound in 1-octanol at pH 7.4 incubated for 4 hrs by HPLC-UV analysis; format: physicochemical; conditions: 1-octanol/aqueous phase
[2] = biological target: T1, Histone-lysine N-methyltransferase SUV39H1 (Homo sapiens, UniProt O43463); experiment: Displacement of 3H-SAM from SUV39H1 (unknown origin) using biotinylated-histone H3 peptide as substrate incubated for 45 mins by SPA assay
T1 sequence (O43463 whole entry): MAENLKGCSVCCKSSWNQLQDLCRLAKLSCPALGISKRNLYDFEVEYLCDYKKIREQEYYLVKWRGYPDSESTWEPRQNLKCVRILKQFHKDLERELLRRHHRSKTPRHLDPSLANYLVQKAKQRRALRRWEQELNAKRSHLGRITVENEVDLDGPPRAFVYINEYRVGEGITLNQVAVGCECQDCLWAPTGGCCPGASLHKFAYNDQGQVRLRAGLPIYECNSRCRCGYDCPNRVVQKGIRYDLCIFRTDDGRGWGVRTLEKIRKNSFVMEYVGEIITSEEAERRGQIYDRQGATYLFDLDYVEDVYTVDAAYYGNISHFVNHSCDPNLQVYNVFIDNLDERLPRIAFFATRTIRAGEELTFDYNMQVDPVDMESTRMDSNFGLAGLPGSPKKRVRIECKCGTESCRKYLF

[3] = biological target: T2, Histone-lysine N-methyltransferase SMYD3 (Homo sapiens, UniProt Q9H7B4); experiment: Displacement of 3H-SAM from SMYD3 (unknown origin) using biotinylated-MAP3K2 as substrate incubated for 45 mins by SPA assay
T2 sequence (Q9H7B4 whole entry): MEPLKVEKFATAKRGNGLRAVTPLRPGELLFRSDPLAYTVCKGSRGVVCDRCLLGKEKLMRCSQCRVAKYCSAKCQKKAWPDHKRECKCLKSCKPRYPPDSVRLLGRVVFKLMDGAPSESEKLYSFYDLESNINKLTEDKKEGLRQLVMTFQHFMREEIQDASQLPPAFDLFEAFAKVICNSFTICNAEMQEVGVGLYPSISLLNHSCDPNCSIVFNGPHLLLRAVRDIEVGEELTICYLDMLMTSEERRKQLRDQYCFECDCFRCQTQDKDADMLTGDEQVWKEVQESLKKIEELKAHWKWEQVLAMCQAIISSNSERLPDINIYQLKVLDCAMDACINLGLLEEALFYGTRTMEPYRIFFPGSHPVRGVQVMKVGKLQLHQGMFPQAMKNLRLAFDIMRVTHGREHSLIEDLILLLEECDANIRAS

[4] = biological target: T3, Protein arginine N-methyltransferase 1 (Homo sapiens, UniProt Q99873); experiment: Displacement of 3H-SAM from PRMT1 (unknown origin) using biotinylated-histone H4 peptide as substrate incubated for 45 mins by SPA assay
Target sequence in this assay (Q99873 whole entry): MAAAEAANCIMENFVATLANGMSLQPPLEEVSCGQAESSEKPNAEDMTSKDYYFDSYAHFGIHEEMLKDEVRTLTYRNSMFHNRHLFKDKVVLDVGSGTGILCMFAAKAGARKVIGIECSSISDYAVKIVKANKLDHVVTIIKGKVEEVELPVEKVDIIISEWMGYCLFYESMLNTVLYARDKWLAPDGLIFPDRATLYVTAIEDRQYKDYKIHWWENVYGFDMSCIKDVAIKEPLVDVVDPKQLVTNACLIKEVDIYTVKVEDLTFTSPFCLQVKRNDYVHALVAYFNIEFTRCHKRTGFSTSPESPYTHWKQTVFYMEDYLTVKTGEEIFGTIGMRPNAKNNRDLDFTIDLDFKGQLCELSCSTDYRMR

[5] = biological target: T4, Histone-lysine N-methyltransferase SMYD3 (Homo sapiens) (UniProt Q9H7B4); experiment: Displacement of 3H-SAM from SMYD3 (unknown origin) using biotinylated-MAP3K2 as substrate at 30 uM incubated for 45 mins by SPA assay relative to control
T4 sequence (whole entry): T2 sequence (Q9H7B4 whole entry)

[6] = biological target: Histone-lysine N-methyltransferase, H3 lysine-79 specific (Homo sapiens) (UniProt Q8TEK3); experiment: Displacement of 3H-SAM from DOT1L (unknown origin) at 30 uM incubated for 1 hr in presence of substrate by SPA assay relative to control
[7] = biological target: T5, Histone-lysine N-methyltransferase SUV39H1 (Homo sapiens) (UniProt O43463); experiment: Displacement of 3H-SAM from SUV39H1 (unknown origin) using biotinylated-histone H3 peptide as substrate at 10 uM incubated for 45 mins by SPA assay relative to control
T5 sequence (whole entry): T1 sequence (O43463 whole entry)

[8] = biological target: T4, Histone-lysine N-methyltransferase SMYD3 (Homo sapiens); experiment: Displacement of 3H-SAM from SMYD3 (unknown origin) using biotinylated-MAP3K2 as substrate at 10 uM incubated for 45 mins by SPA assay relative to control
[9] = Aqueous solubility of compound at pH 7.4 incubated for 24 hrs by HPLC-UV spectroscopy; format: physicochemical; conditions: aqueous medium
[10] = biological target: T3, Protein arginine N-methyltransferase 1; experiment: Displacement of 3H-SAM from PRMT1 (unknown origin) using biotinylated-histone H4 peptide as substrate upto 200 uM incubated for 45 mins by SPA assay
Target sequence in this assay (Q99873 whole entry, looked up): as the sequence (Q99873 whole entry) above

[11] = biological target: T5, Histone-lysine N-methyltransferase SUV39H1 (Homo sapiens); experiment: Displacement of 3H-SAM from SUV39H1 (unknown origin) using biotinylated-histone H3 peptide as substrate upto 200 uM incubated for 45 mins by SPA assay
[12] = biological target: T4, Histone-lysine N-methyltransferase SMYD3 (Homo sapiens); experiment: Displacement of 3H-SAM from SMYD3 (unknown origin) using biotinylated-MAP3K2 as substrate upto 200 uM incubated for 45 mins by SPA assay
[13] = biological target: T3, Protein arginine N-methyltransferase 1; experiment: Displacement of 3H-SAM from PRMT1 (unknown origin) using biotinylated-histone H4 peptide as substrate at 30 uM incubated for 45 mins by SPA assay relative to control
Target sequence in this assay (Q99873 whole entry, looked up): as the sequence (Q99873 whole entry) above

[14] = biological target: T5, Histone-lysine N-methyltransferase SUV39H1 (Homo sapiens); experiment: Displacement of 3H-SAM from SUV39H1 (unknown origin) using biotinylated-histone H3 peptide as substrate at 30 uM incubated for 45 mins by SPA assay relative to control
[15] = biological target: T6, Histone-arginine methyltransferase CARM1 (Homo sapiens, UniProt Q86X55); experiment: Displacement of 3H-SAM from human PRMT4 in presence of substrate by SPA assay
T6 sequence (Q86X55 whole entry): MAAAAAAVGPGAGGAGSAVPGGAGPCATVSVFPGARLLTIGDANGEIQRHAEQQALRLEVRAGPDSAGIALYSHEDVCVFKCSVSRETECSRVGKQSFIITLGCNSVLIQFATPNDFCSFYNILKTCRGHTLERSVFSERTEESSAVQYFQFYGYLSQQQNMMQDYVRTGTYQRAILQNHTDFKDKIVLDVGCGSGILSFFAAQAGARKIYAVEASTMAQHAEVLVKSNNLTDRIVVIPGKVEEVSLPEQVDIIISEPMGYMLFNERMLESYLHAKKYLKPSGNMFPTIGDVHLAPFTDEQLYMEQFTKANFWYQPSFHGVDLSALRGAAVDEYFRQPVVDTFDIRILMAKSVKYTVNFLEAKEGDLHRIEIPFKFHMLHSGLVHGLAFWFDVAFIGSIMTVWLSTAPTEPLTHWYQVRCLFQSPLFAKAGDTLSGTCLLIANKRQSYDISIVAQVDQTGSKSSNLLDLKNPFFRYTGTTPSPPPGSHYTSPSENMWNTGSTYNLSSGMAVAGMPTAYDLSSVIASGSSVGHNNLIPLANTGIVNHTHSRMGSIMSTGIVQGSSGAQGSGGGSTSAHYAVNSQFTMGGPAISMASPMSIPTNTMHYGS

[16] = biological target: T7, Protein arginine N-methyltransferase 8 (Homo sapiens, UniProt Q9NR22); experiment: Displacement of 3H-SAM from human PRMT8 in presence of substrate by SPA assay
[17] = biological target: T6, Histone-arginine methyltransferase CARM1; experiment: Inhibition of PRMT4 (unknown origin)
[18] = biological target: Protein arginine N-methyltransferase 6 (Homo sapiens, UniProt Q96LA8); experiment: Inhibition of PRMT6 (unknown origin)
[19] = biological target: T7, Protein arginine N-methyltransferase 8; experiment: Inhibition of PRMT8 (unknown origin)
[20] = biological target: T3, Protein arginine N-methyltransferase 1; experiment: Inhibition of PRMT1 (unknown origin)
Target sequence in this assay (Q99873 whole entry): as the sequence (Q99873 whole entry) above

Sequence of Histone-lysine N-methyltransferase, H3 lysine-79 specific (Homo sapiens) (Q8TEK3 whole entry, looked up): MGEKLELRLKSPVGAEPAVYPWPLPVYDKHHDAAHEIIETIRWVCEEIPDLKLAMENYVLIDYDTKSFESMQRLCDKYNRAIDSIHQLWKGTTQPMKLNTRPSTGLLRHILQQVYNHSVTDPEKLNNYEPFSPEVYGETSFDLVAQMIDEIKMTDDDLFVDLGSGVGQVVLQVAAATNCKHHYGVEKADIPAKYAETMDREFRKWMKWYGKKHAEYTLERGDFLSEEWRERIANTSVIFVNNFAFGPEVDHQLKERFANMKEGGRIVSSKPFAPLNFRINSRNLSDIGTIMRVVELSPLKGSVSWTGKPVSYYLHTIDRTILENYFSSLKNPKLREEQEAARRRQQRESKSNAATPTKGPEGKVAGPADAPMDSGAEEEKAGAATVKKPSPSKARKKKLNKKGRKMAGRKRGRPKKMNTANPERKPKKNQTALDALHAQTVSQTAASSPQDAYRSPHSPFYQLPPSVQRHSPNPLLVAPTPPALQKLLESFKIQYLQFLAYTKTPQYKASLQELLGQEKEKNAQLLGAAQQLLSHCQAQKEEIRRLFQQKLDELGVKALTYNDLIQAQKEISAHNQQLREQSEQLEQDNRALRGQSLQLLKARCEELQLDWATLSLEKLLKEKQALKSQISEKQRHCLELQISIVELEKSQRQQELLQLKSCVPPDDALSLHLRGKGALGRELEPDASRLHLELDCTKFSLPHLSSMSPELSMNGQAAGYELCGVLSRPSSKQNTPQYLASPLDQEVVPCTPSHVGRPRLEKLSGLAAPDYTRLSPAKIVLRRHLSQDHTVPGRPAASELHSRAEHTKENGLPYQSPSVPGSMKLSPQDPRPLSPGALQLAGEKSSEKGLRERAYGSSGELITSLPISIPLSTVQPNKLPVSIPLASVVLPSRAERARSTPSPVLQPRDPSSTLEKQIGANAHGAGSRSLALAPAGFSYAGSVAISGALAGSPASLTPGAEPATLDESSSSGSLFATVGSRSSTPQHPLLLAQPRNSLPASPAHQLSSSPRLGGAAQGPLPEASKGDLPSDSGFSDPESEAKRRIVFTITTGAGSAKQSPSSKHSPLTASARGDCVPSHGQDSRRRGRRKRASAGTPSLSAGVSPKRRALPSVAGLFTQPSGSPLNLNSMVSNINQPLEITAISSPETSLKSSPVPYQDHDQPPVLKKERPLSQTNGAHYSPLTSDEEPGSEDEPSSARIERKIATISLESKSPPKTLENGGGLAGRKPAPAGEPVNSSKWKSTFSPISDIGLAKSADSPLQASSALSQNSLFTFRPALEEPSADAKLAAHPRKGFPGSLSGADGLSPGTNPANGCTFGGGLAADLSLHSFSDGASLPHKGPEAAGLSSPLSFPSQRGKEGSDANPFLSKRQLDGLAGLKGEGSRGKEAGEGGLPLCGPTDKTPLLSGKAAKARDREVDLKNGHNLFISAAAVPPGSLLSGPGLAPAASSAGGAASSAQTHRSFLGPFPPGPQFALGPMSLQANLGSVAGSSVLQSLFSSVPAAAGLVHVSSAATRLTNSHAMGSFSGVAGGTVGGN
T7 sequence (Q9NR22 whole entry): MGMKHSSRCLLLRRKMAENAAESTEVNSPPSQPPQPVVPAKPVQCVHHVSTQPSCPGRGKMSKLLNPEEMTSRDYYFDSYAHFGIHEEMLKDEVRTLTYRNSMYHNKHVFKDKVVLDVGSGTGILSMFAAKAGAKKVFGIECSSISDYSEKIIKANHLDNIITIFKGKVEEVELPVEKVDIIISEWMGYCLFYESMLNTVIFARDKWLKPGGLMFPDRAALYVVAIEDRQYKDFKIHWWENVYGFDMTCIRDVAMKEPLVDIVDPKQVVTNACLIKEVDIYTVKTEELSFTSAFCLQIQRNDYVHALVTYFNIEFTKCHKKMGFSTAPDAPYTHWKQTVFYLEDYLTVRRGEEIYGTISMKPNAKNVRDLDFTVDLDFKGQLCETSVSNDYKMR
Sequence of Protein arginine N-methyltransferase 6 (Q96LA8 whole entry): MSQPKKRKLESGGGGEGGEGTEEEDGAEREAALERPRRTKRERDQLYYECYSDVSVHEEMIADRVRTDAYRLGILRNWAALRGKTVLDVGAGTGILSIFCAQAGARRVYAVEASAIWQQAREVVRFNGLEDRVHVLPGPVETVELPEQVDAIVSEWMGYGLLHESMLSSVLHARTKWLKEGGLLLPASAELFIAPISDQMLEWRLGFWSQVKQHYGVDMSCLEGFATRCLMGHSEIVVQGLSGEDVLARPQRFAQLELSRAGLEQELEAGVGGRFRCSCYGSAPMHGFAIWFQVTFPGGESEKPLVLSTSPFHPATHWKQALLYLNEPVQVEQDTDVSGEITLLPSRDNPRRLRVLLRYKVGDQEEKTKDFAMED

Compound: COCCc1ccc(OCC(O)CNC(C)C)cc1 (configuration not stated) [METOPROLOL]
- logD at 4 h [1]: -0.28

Compound: NC1CCN(c2ncnc3cc(C(=O)NCCN4CCNCC4)ccc23)CC1
- IC50 [4]: > 100 µM
- IC50 [2]: > 200 µM
- IC50 [3]: > 200 µM

Compound: CNCCNC(=O)c1ccc2c(Nc3ccc(CN)cc3)ncnc2c1
- IC50 [2]: 23 µM
- inhibition [5]: < 25%
- inhibition [6]: 15%

Compound: CNCCCNC(=O)c1ccc2c(Nc3ccc(CN)cc3)ncnc2c1
- inhibition [7]: < 25%
- inhibition [8]: < 25%

Compound: CCCSc1ccc2nc(NC(=O)OC)[nH]c2c1 [ALBENDAZOLE]
- solubility at 24 h [9]: 2.2 µg/mL (≈ 8.29 µM)

Compound: CN(C)CCNC(=O)c1ccc2c(Nc3ccc(CN)cc3)ncnc2c1
- IC50 [2]: 22 µM
- inhibition [13]: < 25%
- inhibition [5]: < 25%
- inhibition [6]: 5%

Compound: CN(C)CCN1CCC(NC(=O)c2ccc3c(Nc4ccc(CN)cc4)ncnc3c2)C1 (configuration not stated)
- IC50 [2]: 16 µM
- inhibition [5]: < 25%
- inhibition [6]: 10%

Compound: CNCCN1CCC(NC(=O)c2ccc3c(Nc4ccc(CNC)cc4)ncnc3c2)C1 (configuration not stated)
- IC50 [4]: 2 µM
- inhibition [7]: < 25%
- inhibition [8]: < 25%

Compound: CC(C)Oc1ccc(-c2c[nH]cc2CN(C)CCN)cc1
- IC50 [15]: 45 µM
- IC50 [16]: 9 µM

Compound: CNCCNc1cccc(-n2nc(C(F)(F)F)cc2C(=O)NCc2ccccc2OC)c1
- IC50 [17]: 0.005 µM

Compound: CNCCNCc1c[nH]nc1-c1ccc(O[C@H]2C[C@H](OCCC3CCCCC3)C2)cc1
- IC50 [18]: 0.01 µM
- IC50 [19]: 0.223 µM
- IC50 [20]: 0.119 µM

More lines, now with the values ahead:

- IC50 [2]: 35 µM
- IC50 [3]: 74 µM
Compound: NCc1ccc(Nc2ncnc3cc(C(=O)NCCN4CCNCC4)ccc23)cc1

- IC50 [4]: > 100 µM
- IC50 [2]: > 100 µM
- IC50 [3]: > 200 µM
Compound: NCc1ccc(Nc2ncnc3cc(C(=O)N4CCC(N)C4)ccc23)cc1 (configuration not stated)

- IC50 [2]: 47 µM
- IC50 [3]: 63 µM
Compound: NCc1ccc(Nc2ncnc3cc(C(=O)NC4CCNC4)ccc23)cc1 (configuration not stated)

- IC50 [2]: 16 µM
- IC50 [3]: 60 µM
Compound: NC1CCN(c2ncnc3cc(C(=O)NC4CCNC4)ccc23)CC1 (configuration not stated)

- inhibition [10]: inactive
- inhibition [11]: inactive
- inhibition [12]: inactive
Compound: NC1CCN(c2ncnc3cc(C(=O)NC4CCCC4)ccc23)CC1

- IC50 [4]: > 200 µM
- IC50 [2]: > 200 µM
- IC50 [3]: > 100 µM
Compound: NCc1ccc(Nc2ncnc3cc(C(=O)NC4CCNCC4)ccc23)cc1

- inhibition [13]: < 25%
- inhibition [14]: < 25%
- inhibition [5]: < 25%
- inhibition [6]: 17%
Compound: CN1CCN(CCNC(=O)c2ccc3c(Nc4ccc(CN)cc4)ncnc3c2)CC1

- inhibition [10]: inactive
- inhibition [7]: < 25%
- inhibition [8]: < 25%
Compound: CN1CCC(NC(=O)c2ccc3c(Nc4ccc(CN)cc4)ncnc3c2)C1 (configuration not stated)

- IC50 [4]: > 200 µM
- IC50 [2]: > 200 µM
- IC50 [3]: > 200 µM
Compound: NC1CCN(c2ncnc3cc(C(=O)NC4CCNCC4)ccc23)CC1

- IC50 [2]: 14 µM
- inhibition [13]: < 25%
- inhibition [5]: < 25%
- inhibition [6]: 9%
Compound: NCc1ccc(Nc2ncnc3cc(C(=O)NCCN4CCCC4)ccc23)cc1

- IC50 [2]: 7 µM
- IC50 [3]: 8 µM
Compound: NCc1ccc(NC(=O)c2ccc3c(N4CCC(N)CC4)ncnc3c2)cc1
